Here are results for six molecules from PMC2674222 (Biochemistry, 2009).

As a reminder, the Ki is a dissociation constant, usually derived from enzyme kinetics or from competition with a known ligand. For orientation: Km means the concentration of substrate that gives half-maximal velocity. Usually kcat stands for the maximal rate divided by the concentration of active sites. The Kd is the equilibrium constant for the complex coming apart. Usually koff stands for a measure of how fast the partners let go of each other. By kon is commonly meant the second-order rate constant of association. For orientation: kcat/Km means the second-order rate constant that governs catalysis at low substrate concentration.

Data set [1] deals with Leuko-PNP. As to conditions: read-out: Ki* (slow-onset tight binding constant); 50 mM KH2PO4, pH 7.4, 25 °C; cited from earlier work.
For data set [2], the target named is Native PNP. As to conditions: read-out: Ki* (slow-onset tight binding constant); 50 mM KH2PO4, pH 7.4, 25 °C; cited from earlier work.
Data set [3] concerns the target T1, F159W-Leuko-PNP (Homo sapiens, UniProt P00491, F159W/W16Y/W178Y/W94Y).
T1 sequence (P00491 1-289 W16Y/W94Y/F159W/W178Y): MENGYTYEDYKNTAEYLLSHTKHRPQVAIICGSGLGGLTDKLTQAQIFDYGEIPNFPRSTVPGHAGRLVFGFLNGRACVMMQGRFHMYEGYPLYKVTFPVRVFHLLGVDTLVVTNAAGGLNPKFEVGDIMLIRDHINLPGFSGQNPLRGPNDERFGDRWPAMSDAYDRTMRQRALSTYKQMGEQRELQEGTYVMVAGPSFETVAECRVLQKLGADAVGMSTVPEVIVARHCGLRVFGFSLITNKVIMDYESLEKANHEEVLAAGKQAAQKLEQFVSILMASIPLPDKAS
Particulars: relative to native and Leuko-PNP (Table 2).

Data set [4] addresses T1, F159W-Leuko-PNP. Put plainly: Fluorometric titration of hypoxanthine-free enzyme with ligands. The data set is classed as binding. As to conditions: for Kd: pH 7.4, 25 °C.
Data set [5] deals with Native PNP. As to conditions: inosine as substrate; 50 mM KH2PO4, pH 7.4, 25 °C; cited from earlier work.
The test system of data set [6] is Leuko-PNP. As to conditions: inosine as substrate; 50 mM KH2PO4, pH 7.4, 25 °C; cited from earlier work.
In data set [7] the target is T1, F159W-Leuko-PNP. Put plainly: Steady state kinetics, xanthine oxidase coupled assay with inosine as substrate. The data set is classed as biochemical.
Data set [8] has as its target T2, F159W-Leuko-PNP-PO4 (Homo sapiens, UniProt P00491, F159W/W16Y/W178Y/W94Y). Briefly: biochemical.
Data set [9] addresses T2, F159W-Leuko-PNP-PO4. Particulars: F159W-Leuko-PNP-Hx-PO4 system, 25 °C.
Data set [10] has as its system Leuko-PNP-PO4. Particulars: stopped-flow fluorometry; cited from earlier work.
Data set [11] relates to Leuko-PNP-PO4. Particulars: T-jump relaxation kinetics; cited from earlier work.
Substrate in data set [12]: OC[C@H]1O[C@@H](n2cnc3c(O)ncnc32)[C@H](O)[C@@H]1O
Put plainly: Steady state kinetics, xanthine oxidase coupled assay with inosine as substrate. The data set is classed as biochemical, human. As to conditions: other: inosine as substrate, 50 mM KH2PO4, pH 7.4, 25 °C.

Like-named read-outs stand apart in the source and are kept apart here.

As to Immucillin-H [ImmH], the Ki on Leuko-PNP [1] is 0.134 ± 0.012 nM; on Native PNP [2], 0.088 ± 0.003 nM. Moreover, the “reduction of binding affinity to F159W-Leuko-PNP” value at F159W-Leuko-PNP [3] is roughly 20 fold.

With `O=c1[nH]cnc2c1ncn2[C@@H]1O[C@H](CO)[C@@H](O)[C@H]1O` [Inosine, inosine], at F159W-Leuko-PNP [4] (up to ∼100 μM, absence or presence of inorganic sulfate (up to 3 mM)), the “effect on fluorescence emission spectrum of the enzyme” value is “does not alter the fluorescence emission spectrum”. Also, in the data set with Native PNP [5], the Km is 71 ± 8 µM and the turnover number (kcat) is 44 ± 2 s⁻¹. In the data set with Leuko-PNP [6], the Km is 50 ± 3 µM and the kcat is 36 ± 1 s⁻¹. Further, at F159W-Leuko-PNP [7], the “Km altered, F159W-Leuko-PNP vs native and Trp-free enzymes” value is recorded as roughly 7 fold; the “kcat altered, F159W-Leuko-PNP vs native and Trp-free enzymes” value was roughly 2 fold; the “overall catalytic efficiency reduced relative to native- and Leuko-PNPs” value is recorded as roughly 14 fold.

Take “4'-deaza-1'-aza-2'-deoxy-1'-(9-methylene)-Immucillin-H [DADMe-ImmH]”: the inhibitory constant (Ki) was 0.012 ± 0.003 nM at Leuko-PNP [1] and 0.0085 ± 0.0003 nM at Native PNP [2]. The “reduction of binding affinity to F159W-Leuko-PNP” value on F159W-Leuko-PNP [3] is roughly 10 fold.

Take `O=c1[nH]cnc2nc[nH]c12` [hypoxanthine]: on F159W-Leuko-PNP [4] (absence of phosphate, 20 mM Tris-Cl), binding was characterised by a dissociation constant (Kd) of 3300 ± 200 nM. On F159W-Leuko-PNP [4] (presence of phosphate (50 mM KH2PO4)), the Kd was 16000 ± 2000 nM. Moreover, on F159W-Leuko-PNP [4] (absence or presence of phosphate (50 mM KH2PO4), λex 295 nm), the “decrease in fluorescence intensity upon titration” value is on record as 3 fold. On F159W-Leuko-PNP-PO4 [8] (read-out: calculated dissociation rate (koff)), the koff was 178 ± 8 s⁻¹. Besides, the kon on F159W-Leuko-PNP-PO4 [8] (read-out: rate of association (kon)) amounted to 1.2e+07 M⁻¹ s⁻¹. At F159W-Leuko-PNP-PO4 [9], the k1 entry is reported as “(1.2 ± 0.1) × 10^7 M^−1s^−1” and the “k−1” value is 178 ± 8 s⁻¹.

As for `Nc1nc2nc[nH]c2c(=O)[nH]1` [guanine], in the data set with Leuko-PNP-PO4 [10], the koff was 86 ± 8 s⁻¹ and the kon is on record as 2.7 ± 0.1 × 10^7 M^−1s^−1. For the same molecule, in the data set with Leuko-PNP-PO4 [11], the koff is 142 ± 36 s⁻¹ and the kon is recorded as 3.6 ± 0.2 × 10^7 M^−1s^−1.

B1: F159W-Leuko-PNP (Homo sapiens; F159W/W16Y/W178Y/W94Y) (protein)
chain: MENGYTYEDYKNTAEYLLSHTKHRPQVAIICGSGLGGLTDKLTQAQIFDYGEIPNFPRSTVPGHAGRLVFGFLNGRACVMMQGRFHMYEGYPLYKVTFPVRVFHLLGVDTLVVTNAAGGLNPKFEVGDIMLIRDHINLPGFSGQNPLRGPNDERFGDRWPAMSDAYDRTMRQRALSTYKQMGEQRELQEGTYVMVAGPSFETVAECRVLQKLGADAVGMSTVPEVIVARHCGLRVFGFSLITNKVIMDYESLEKANHEEVLAAGKQAAQKLEQFVSILMASIPLPDKAS
As to B1, in data set [12], the Km is 422 ± 30 µM, the kcat turned out to be 22 ± 1 s⁻¹ and the catalytic efficiency (kcat/Km) worked out at 52000 ± 4000 M⁻¹ s⁻¹.
